Experimental data published in ChEMBL document CHEMBL4699474, “Dimeric Tetrahydroanthracene Regioisomers and Their Monomeric Precursor Produced by Streptomyces fumigatiscleroticus HDN10255” (J Nat Prod, 2020).
Counter-ions that a name gives are not always drawn.

What was measured:
Assay type in all cases: functional, cell-based
K562 = test: Cytotoxicity against human K562 cells assessed as reduction in cell viability after 48 hrs by MTT assay; details: K562, 48 h
HCT-116 = test: Cytotoxicity against human HCT-116 cells assessed as reduction in cell viability after 48 hrs by SRB assay; details: HCT-116, 48 h
HeLa = test: Cytotoxicity against human HeLa cells assessed as reduction in cell viability after 48 hrs by SRB assay
HL-60 = test: Cytotoxicity against human HL-60 cells assessed as reduction in cell viability after 48 hrs by MTT assay; details: HL-60, 48 h

SMILES	IC50 (K562)	IC50 (HCT-116)	IC50 (HeLa)	IC50 (HL-60)
CC(=O)[C@H]1c2cc3c(-c4ccc(O)c5c(O)c6c(cc45)[C@H](C(C)=O)[C@@](C)(O)CC6=O)ccc(O)c3c(O)c2C(=O)C[C@]1(C)O	> 10 µM	> 10 µM	> 10 µM	> 10 µM
CC(=O)[C@H]1c2cc3ccc(-c4c5c(c(O)c6c(O)cccc46)C(=O)C[C@](C)(O)[C@H]5C(C)=O)c(O)c3c(O)c2C(=O)C[C@]1(C)O	> 10 µM	> 10 µM	> 10 µM	> 10 µM
CC(=O)[C@H]1c2c(c(O)c3c(O)cccc3c2-c2c3c(c(O)c4c(O)cccc24)C(=O)C[C@](C)(O)[C@H]3C(C)=O)C(=O)C[C@]1(C)O	5.1 µM	> 10 µM	1.8 µM	> 10 µM
CC(=O)[C@H]1c2cc3cccc(O)c3c(O)c2C(=O)C[C@]1(C)O	> 10 µM	> 10 µM	> 10 µM	> 10 µM
CC(=O)[C@H]1c2cc3c(-c4c5c(c(O)c6c(O)cccc46)C(=O)C[C@](C)(O)[C@H]5C(C)=O)ccc(O)c3c(O)c2C(=O)C[C@]1(C)O	10 µM	> 10 µM	5.1 µM	6.2 µM
COc1cccc2c1C(=O)c1c(O)c3c(c(O)c1C2=O)C[C@@](O)(C(=O)CO)C[C@@H]3O[C@H]1C[C@H](N)[C@H](O)[C@H](C)O1 [DOXORUBICIN HYDROCHLORIDE]	0.2 µM			
